# In patent US20080234629A1, “WATER ELECTROLYSIS TO FACILITATE DRUG DELIVERY BY IONTOPHORESIS” (priority 2007, published 2008):
# Test: Solubility of acyclovir in the aqueous portion of the formulation, from propylene glycol/water solubility measurements
# Assay type: physicochemical
# Conditions: estimated from propylene glycol/water solubility measurements
# Description: Assuming that the electrolysis is 100% efficient, the expected proton generation is […] (0.4 mA×600 sec×6.2×10^18, coulomb, ÷[…]; assuming each electron generate one proton). Thus the electrolysis of water provides enough protons to ionize the soluble portion of the dose. Since the current density in the invented system is typical for iontophoresis, the rate of proton generation in this system can be realized in other iontophoretic systems. Because the coulombic dose in this iontophoretic system is at the low end of iontophoretic doses, larger quantities of protons could be generated for use in other applications.
smiles,measurement,value
Nc1nc2c(ncn2COCCO)c(=O)[nH]1 [Acyclovir],solubility of acyclovir in the aqueous portion of the formulation,~0.3 % by weight
